{
  "source": "patent US10697960B2",
  "about": "“CXCR4 and ROBO1 expression as markers for autoimmune diabetes” (BOARD OF SUPERVISORS OR LOUISANA STATE UNIVERSITY AND …, priority 2012, dated 2020)",
  "key": {"[1]": {"tested_on": "adoptive transfer models in mice", "conditions": "cited from earlier work"}, "[2]": {"tested_on": "NOD/ShiLtJ T cells on TNFα-activated MS1 islet endothelial cells", "assay": "Parallel plate flow chamber T cell adhesion assay with SDF-1 peptide mimetic", "type": "cell-based, mouse", "conditions": "150 mPa; for TNFα-induced firm adhesion of T cells (fold change in number of adherent cells): MS1 cells treated 10 minutes with mimetic at 200, 1000 or 5000 ng/ml after 10 ng/ml TNFα, versus TNFα alone", "description": "Hydrodynamic flow chamber assays were performed as otherwise described in C. Sharp et al. (2008). Briefly, T cells isolated as described above were labeled with CellTracker Green (C7025; Life Technologies, Carlsbad, Calif., USA), rinsed, and resuspended at a concentration of 2×10^6 cells/ml in phenol red-free Hanks' balanced salt solution (HBSS). The cells were placed in a beaker that had been previously coated with Sigmacote (Sigma-Aldrich), kept at 37° C., and stirred at 60 rev/min. A flow chamber insert and gasket with a 0.5 cm flow width and 250 μm thickness (GlycoTech, Gaithersburg, Md., USA) were used with 35 mm cell culture dishes containing confluent MS1 cell cultures to form a parallel plate flow chamber. To activate endothelial cells, MS1 cells were treated for 4 to 6 hours at 37° C. with 10 ng/ml recombinant mouse TNFα (T7539; Sigma).\nFor the SDF-1 peptide mimetic T cell adhesion assay, MS1 cells were rinsed with HBSS and treated for 10 minutes with an SDF-1 peptide mimetic (AYWKENKEQ with two branched lysines as a linker between the two motifs, SEQ ID NO 1) at […]. This peptide was a linearized version of a cyclized SDF-1 analogue reported by Tudan et al., “C-terminal cyclization of an SDF-1 small peptide analogue dramatically increases receptor affinity and activation of CXCR4 receptor,” J. Med. Chem., vol. 45, pp. 2024-31 (2002). T cells were pumped through polypropylene tubing by a syringe pump (KD Scientific, Holliston, Mass., USA) across the endothelial monolayer at a physiological shear stress of 150 mPa. Real-time digital video images (minimum 28 frames/second) were captured with an epifluorescence microscope (TE-2000 Eclipse; Nikon, Tokyo, Japan) and digital camera (Model C4742-95-12ER: Hamamatsu Photonics, Hamamatsu, Japan). Simple PCI software (Hamamatsu Photonics) was used to analyze the video and to measure T cell rolling velocities. Cells were considered firmly adherent if they remained stationary for 10 seconds within the field of view. A minimum of three videos per plate and four plates per condition were used for analysis.\nWe examined whether a linear SDF-1 peptide mimetic containing the receptor-binding site could replicate the effect of full length SDF-1 in blocking adhesion of T cells to activated endothelium. MS1 cells were treated for 4 hours with 10 ng/ml TNFα, followed by treatment for 10 minutes with an SDF-1 peptide mimetic at 200, 1000, or 5000 ng/ml. Cells were then tested in a parallel plate flow chamber cell adhesion assay. Fluorescently labeled T cells obtained from NOD/ShiLtJ mice flowed over the endothelial monolayers at 150 mPa. […] Leucocyte adhesion videos were analyzed to calculate T cell rolling velocity and to determine whether the decrease in firm adhesion was due to a decreased number of rolling cells."}, "NOD/LtSz Rag1^−/− mice": {"tested_on": "NOD/LtSz Rag1^−/− mice", "assay": "Diabetes adoptive transfer of diabetogenic splenocytes", "type": "in vivo, mouse", "conditions": "for blood glucose levels compared with PBS treatment: 4 to 5 weeks post-transfer", "description": "Single cell suspensions of splenocytes were isolated from spleens of spontaneously diabetic female NOD/ShiLtJ mice as otherwise described in J. Glawe et al. (2009) Genetic deficiency of Itgb2 or ItgaL prevents autoimmune diabetes through distinctly different mechanisms in NOD/LtJ mice. Diabetes 58: 1292-1301, Erythrocytes were lysed with 150 mM NH4Cl, 1.0 mM/l KHCO3, and 0.1 mM disodium EDTA, and then resuspended in PBS at 200×10^6 splenocytes per ml. Female NOD/LtSz Rag1^−/− mice were injected retro-orbitally with 20×10^6 splenocytes.\nThe recipient mice were then injected retro-orbitally, either once or three times per week, with the SDF-1 peptide mimetic CTCE-0214 (SEQ ID NO. 2, KPVSLSYRCPCRFF-Linker-LKWIQEYLEKALN-OH) (British Canadian BioSciences, Vancouver, BC, Canada) at 1 or 10 mg/kg, or with PBS. See K Li, et al., “Small peptide analogue of SDF-1a supports survival of cord blood CD34+ cells in synergy with other cytokines and enhances their ex vivo expansion and engraftment into nonobese diabetic/severe combined immunodeficient mice,” Stem Cells, vol, 24, pp. 56-64 (2006); R. Zhong et al., “Small peptide analogs to stromal derived factor 1 enhance chemotactic migration of human and mouse hematopoietic cells,” Experimental Hematology, vol 32, pp. 470-475 (2004); A. Faber at al., “The many facets of SDF-1, CXCR4 agonists and antagonists on hematopoietic progenitor cells,” Journal of Biomedicine and Biotechnology, Article ID 26065; doi: 10.1155/200726065 (2007). Blood glucose was measured twice per week via a tail stick assay (Ascensia Glucometer Elite; Bayer, Leverkusen, Germany). Mice were considered hyperglycaemic following two consecutive measurements at 13.9 mM (250 mg/dl) glucose. Another SDF-1 mimetic that could be used is the CTCE-9908 peptide disclosed by A. Faber at al. (2007)."}, "CD34^+ cells": {"tested_on": "CD34^+ cells", "conditions": "at much higher concentrations than SDF-1; cited from earlier work"}, "[3]": {"tested_on": "NOD/ShiLtJ T cells on VCAM-1- and ICAM-1-coated plates", "assay": "SLIT2 T cell detachment assay on VCAM-1- and ICAM-1-coated plates", "type": "cell-based, mouse", "conditions": "SDF-1 plus 20 μg/ml SLIT2 versus SDF-1 alone", "description": "T cell detachment assays were performed as otherwise described in C. Sharp et al. (2008). T cells were injected into the tubing via an inlet port upstream of the flow chamber at a concentration of 2×10^6 cells/ml and allowed to firmly adhere under static conditions for 15 minutes. Next, shear stress was initiated and increased in a step-wise manner every 30 seconds as follows: 35, 56, 91, 224, 504, and 980 mPa. The assay was recorded by video, which was analyzed to determine the percentage of cells detached at the end of each shear stress interval. For the anti-ROBO1 detachment assay, MS1 cells were treated for […] at 37° C. with TNFα as described above and then with 100 ng/ml recombinant mouse SDF-1α (460-SD; R&D Systems). T cells were pre-treated for 30 minutes at 37° C. with 20 μg/ml ROBO1 blocking antibody (GT15144; Neuromics, Edina, Minn., USA) or isotype control (GT15900; Neuromics).\nFor the SLIT2 detachment assay, the following modifications were made. Vascular cell adhesion molecule 1 (VCAM-1)- and intercellular cell adhesion molecule 1 (ICAM-1)-coated plates were substituted for confluent monolayers of MS1 cells to isolate the specific ligand and receptor interactions involved. Plates were treated by tracing five 5 mm diameter circles aligned in one row in the center of a 100 mm diameter tissue culture dish using a PAP pen, and then applying 15 μl of 1 mg/ml protein A to each circle for 30 minutes. Plates were rinsed twice with PBS and blocked for 30 minutes with 5% (wt/vol) BSA in PBS. Plates were rinsed and each circle was then treated for 30 minutes with 15 μl of a solution containing 5 μg/ml ICAM-1/Fc chimera (796-IC; R&D Systems) and 5 μg/ml VCAM-1/Fc chimera (643-VM; R&D Systems), or PBS (control). Plates were rinsed and stored at 4° C. T cells were suspended in HBSS containing, 10 μg/ml heparin sodium and treated for 15 minutes at 37° C. with 250 ng/ml SDF-1 and 20 μg/ml recombinant mouse SLIT2 (5444-SL; R&D Systems) before use. A Glycotech rectangular flow chamber with a 250 μm thick gasket and a 1 cm wide flow path was used. […]"}},
  "note": "“Also recorded” adds a separate entry of the source. Square brackets hold non-standard residues; d marks the D form. Ends that are not written are not given here. Linker = not defined here",
  "data": [
    {"molecule": "c1cc(CN2CCCNCCNCCCNCC2)ccc1CN1CCCNCCNCCCNCC1", "note": "[AMD3100]", "values": [
      {"measurement": "development of diabetes", "setting": "[1]; disruption of SDF-1-CXCR4 binding", "value": "accelerate the development of diabetes"},
      {"measurement": "beta cell apoptosis", "setting": "[1]; mouse, in vivo", "value": "induce beta cell apoptosis"}
    ]},
    {"molecule": "AYWKENKEQ with two branched lysines as a linker between the two motifs (also: two branched lysines as a linker between the two motifs) [SDF-1 peptide mimetic, linearized version of a cyclized SDF-1 analogue reported by Tudan et al]", "values": [
      {"measurement": "TNFα-induced firm adhesion of T cells (fold change in number of adherent cells)", "setting": "[2]", "value": "prevented NOD T cell adhesion; also recorded: significantly reduced; also recorded: reversed"},
      {"measurement": "number of rolling cells", "setting": "[2]; TNFα-treated MS1 cells, data not shown", "value": "did not decrease"},
      {"measurement": "T cell rolling velocity", "setting": "[2]; TNFα-treated endothelial cells, versus control", "value": "did not significantly affect"}
    ]},
    {"molecule": "KPVSLSYRCPCRFF-Linker-LKWIQEYLEKALN-OH (KPVSLSYRCPCRFF[Linker]LKWIQEYLEKALN-OH; cysteine pairing not given here; reading uncertain; also: printed as KPVSLSYRCPCRFF-Linker-LKWIQEYLEKALN-OH) [CTCE-0214, 2, small peptide CXCR4 agonist from British Canadian BioSciences]", "values": [
      {"measurement": "TNFα-induced firm adhesion of T cells (fold change in number of adherent cells)", "setting": "[2]", "value": "can reduce"},
      {"measurement": "progression of autoimmune diabetes", "setting": "NOD/LtSz Rag1^−/− mice; 1 mg/kg", "value": "almost no effect"},
      {"measurement": "blood glucose levels compared with PBS treatment", "setting": "NOD/LtSz Rag1^−/− mice; 1 mg/kg three times per week", "value": "not"},
      {"measurement": "blood glucose levels compared with PBS-treated mice", "setting": "NOD/LtSz Rag1^−/− mice; 10 mg/kg once per week, retro-orbital, 5.5 and 6 weeks post-transfer", "value": "significantly reduced glucose levels"},
      {"measurement": "development of hyperglycaemia compared with PBS treatment", "setting": "NOD/LtSz Rag1^−/− mice; 10 mg/kg one time per week", "value": "delayed development of hyperglycaemia"},
      {"measurement": "development of hyperglycaemia compared with PBS treatment", "setting": "NOD/LtSz Rag1^−/− mice; 10 mg/kg three times per week", "value": "delayed development of hyperglycaemia"},
      {"measurement": "blood glucose levels compared with PBS treatment", "setting": "NOD/LtSz Rag1^−/− mice; 10 mg/kg three times per week", "value": "significantly reduced glucose levels"},
      {"measurement": "adoptive transfer / progression of autoimmune diabetes, onset of hyperglycaemia", "setting": "NOD/LtSz Rag1^−/− mice; 10 mg/kg where a dose is stated", "value": "significantly delayed the onset of hyperglycaemia; also recorded: therapeutically beneficial; also recorded: effectively delayed adoptive transfer of diabetes; also recorded: slowed the development of diabetes"},
      {"measurement": "effect of dosing frequency on incidence of hyperglycaemia", "setting": "NOD/LtSz Rag1^−/− mice; once per week versus three times per week", "value": "better reduction in the incidence of hyperglycaemia at a dosing of once per week; also recorded: more beneficial effect at once-a-week dosing"},
      {"measurement": "migration of CD34^+ cells", "setting": "CD34^+ cells", "value": "increases migration"}
    ]},
    {"molecule": "SLIT2: recombinant mouse SLIT2 (5444-SL; R&D Systems), ligand of ROBO1 (protein) QACPAQCSCSGSTVDCHGLALRSVPRNIPRNTERLDLNGNNITRITKIDFAGLRHLRVLQLMENRISTIERGAFQDLKELERLRLNRNNLQLFPELLFLGTAKLYRLDLSENQIQAIPRKAFRGAVDIKNLQLDYNQISCIEDGAFRALRDLEVLTLNNNNITRLSVASFNHMPKLRTFRLHSNNLYCDCHLAWLSDWLRQRPRVGLYTQCMGPSHLRGHNVAEVQKREFVCSGHQSFMAPSCSVLHCPAACTCSNNIVDCRGKGLTEIPTNLPETITEIRLEQNSIRVIPPGAFSPYKKLRRLDLSNNQISELAPDAFQGLRSLNSLVLYGNKITELPKSLFEGLFSLQLLLLNANKINCLRVDAFQDLHNLNLLSLYDNKLQTVAKGTFSALRAIQTMHLAQNPFICDCHLKWLADYLHTNPIETSGARCTSPRRLANKRIGQIKSKKFRCSGTEDYRSKLSGDCFADLACPEKCRCEGTTVDCSNQRLNKIPDHIPQYTAELRLNNNEFTVLEATGIFKKLPQLRKINFSNNKITDIEEGAFEGASGVNEILLTSNRLENVQHKMFKGLESLKTLMLRSNRISCVGNDSFIGLGSVRLLSLYDNQITTVAPGAFDSLHSLSTLNLLANPFNCNCHLAWLGEWLRRKRIVTGNPRCQKPYFLKEIPIQDVAIQDFTCDDGNDDNSCSPLSRCPSECTCLDTVVRCSNKGLKVLPKGIPKDVTELYLDGNQFTLVPKELSNYKHLTLIDLSNNRISTLSNQSFSNMTQLLTLILSYNRLRCIPPRTFDGLKSLRLLSLHGNDISVVPEGAFNDLSALSHLAIGANPLYCDCNMQWLSDWVKSEYKEPGIARCAGPGEMADKLLLTTPSKKFTCQ", "values": [
      {"measurement": "shear-mediated T cell detachment from VCAM-1- and ICAM-1-coated plates", "setting": "[3]", "value": "significant increase in detachment; also recorded: promoted detachment"},
      {"measurement": "shear-mediated T cell detachment from VCAM-1- and ICAM-1-coated plates", "setting": "[3]; listed as Slit-2 peptide containing the LRR domain 2", "value": "stimulated detachment"},
      {"measurement": "shear-mediated T cell detachment from VCAM-1- and ICAM-1-coated plates", "setting": "[3]; listed as recombinant SLIT2", "value": "reversed"}
    ]}
  ]
}
